Molecules are shown by their SMILES.

Assay [1] concerns the target T1, rat adrenergic α1B receptor (Rattus norvegicus, UniProt P15823).
T1 construct: rat adrenergic α1B receptor obtained from Wistar Rat liver; from tissue; host or cells: Wistar rat liver
T1 sequence (P15823 1-515): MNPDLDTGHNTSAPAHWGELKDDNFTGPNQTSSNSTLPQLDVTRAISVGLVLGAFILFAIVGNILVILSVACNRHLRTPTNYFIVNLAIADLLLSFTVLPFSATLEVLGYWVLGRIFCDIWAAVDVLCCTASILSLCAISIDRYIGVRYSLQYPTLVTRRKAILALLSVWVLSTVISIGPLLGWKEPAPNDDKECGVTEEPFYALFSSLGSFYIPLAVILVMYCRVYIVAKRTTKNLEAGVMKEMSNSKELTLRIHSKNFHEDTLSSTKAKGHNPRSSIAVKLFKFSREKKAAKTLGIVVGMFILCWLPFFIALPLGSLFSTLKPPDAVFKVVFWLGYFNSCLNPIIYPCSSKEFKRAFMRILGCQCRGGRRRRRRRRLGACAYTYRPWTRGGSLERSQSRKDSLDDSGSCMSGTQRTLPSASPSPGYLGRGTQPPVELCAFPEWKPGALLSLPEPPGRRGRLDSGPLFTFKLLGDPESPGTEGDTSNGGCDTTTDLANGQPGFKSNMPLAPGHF
The assay is described as follows: Radioligand binding, adrenergic α1B receptor ([3H]Prazosin). The following applies: 0.1 μM compound, Wistar rat liver, read-out: Percentage inhibition of ligand binding, Adrenergic α1B. In a few lines: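 Wistar rat liver α1B receptor preparation incubated with 0.25 nM [3H]prazosin and compound for 60 min at 25° C in 50 mM Tris-HCl pH 7.4, 0.5 mM EDTA; nonspecific binding defined with 10 μM phentolamine.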

Assay [2] addresses T2, human recombinant adrenergic α2A receptor (Homo sapiens, UniProt P08913).
T2 construct: expressed in transfected cells; host or cells: insect Sf9 cells
T2 sequence (P08913 1-465): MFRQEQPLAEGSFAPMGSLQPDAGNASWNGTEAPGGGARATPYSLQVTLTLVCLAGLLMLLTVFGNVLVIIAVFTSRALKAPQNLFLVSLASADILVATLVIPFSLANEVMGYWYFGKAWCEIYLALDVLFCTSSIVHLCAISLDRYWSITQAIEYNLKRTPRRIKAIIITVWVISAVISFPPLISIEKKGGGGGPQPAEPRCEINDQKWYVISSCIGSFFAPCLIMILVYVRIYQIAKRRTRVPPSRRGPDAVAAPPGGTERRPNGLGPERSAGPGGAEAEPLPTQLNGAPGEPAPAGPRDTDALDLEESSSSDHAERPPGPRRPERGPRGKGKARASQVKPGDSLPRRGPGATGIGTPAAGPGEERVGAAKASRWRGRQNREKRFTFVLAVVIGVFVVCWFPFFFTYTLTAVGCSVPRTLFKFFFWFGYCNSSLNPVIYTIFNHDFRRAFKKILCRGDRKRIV
In words: Radioligand binding, adrenergic α2A receptor ([3H]MK-912). To be noted: 0.1 μM compound; Sf9 cells; 1 nM [3H]MK-912; read-out: Percentage inhibition of ligand binding, Adrenergic α2A. In a few lines:
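Percent inhibition of specific [3H]MK-912 (1 nM) binding measured by filtration counting, compounds tested at ≤1 μM in 1% DMSO. Receptor: human α2A from Sf9 cells; incubation 60 min, 25 °C, pH 7.4; 10 μM WB-4101 defined nonspecific binding.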

Assay [3] deals with T3, human recombinant adrenergic α2B receptor (Homo sapiens, UniProt P18089).
T3 construct: expressed in transfected cells; host or cells: CHO-K1
T3 sequence (P18089 1-450): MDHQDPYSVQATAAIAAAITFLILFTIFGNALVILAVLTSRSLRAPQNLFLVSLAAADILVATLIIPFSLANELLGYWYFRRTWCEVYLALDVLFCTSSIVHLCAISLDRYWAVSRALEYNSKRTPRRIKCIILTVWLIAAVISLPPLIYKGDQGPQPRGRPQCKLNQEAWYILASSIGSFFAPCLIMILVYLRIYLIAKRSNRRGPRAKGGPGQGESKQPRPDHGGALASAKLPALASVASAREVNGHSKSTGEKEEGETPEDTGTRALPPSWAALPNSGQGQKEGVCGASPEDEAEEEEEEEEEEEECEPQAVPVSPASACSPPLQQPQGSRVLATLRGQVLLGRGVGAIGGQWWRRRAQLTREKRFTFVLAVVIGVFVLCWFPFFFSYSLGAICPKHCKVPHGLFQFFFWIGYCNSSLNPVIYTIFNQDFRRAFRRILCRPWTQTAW
The assay is described as follows: Radioligand binding, adrenergic α2B receptor ([3H]Rauwolscine). The following applies: 0.1 μM compound, CHO-K1 cells, read-out: Percentage inhibition of ligand binding, Adrenergic α2B. In a few lines:
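Percent inhibition of specific [3H]Rauwolscine (2.5 nM) binding, compounds at ≤1 μM, 1% DMSO vehicle, 10 μM prazosin defining nonspecific. Receptor: human α2B expressed in CHO-K1 cells, 60 min incubation at 25 °C in Tris-HCl pH 7.4 buffer (MgCl2, EDTA, BSA); filtered, washed, counted.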

Assay [4] addresses T4, human recombinant adrenergic α1D receptor (Homo sapiens, UniProt P25100).
T4 construct: expressed in transfected cells; host or cells: HEK-293
T4 sequence (P25100 1-572): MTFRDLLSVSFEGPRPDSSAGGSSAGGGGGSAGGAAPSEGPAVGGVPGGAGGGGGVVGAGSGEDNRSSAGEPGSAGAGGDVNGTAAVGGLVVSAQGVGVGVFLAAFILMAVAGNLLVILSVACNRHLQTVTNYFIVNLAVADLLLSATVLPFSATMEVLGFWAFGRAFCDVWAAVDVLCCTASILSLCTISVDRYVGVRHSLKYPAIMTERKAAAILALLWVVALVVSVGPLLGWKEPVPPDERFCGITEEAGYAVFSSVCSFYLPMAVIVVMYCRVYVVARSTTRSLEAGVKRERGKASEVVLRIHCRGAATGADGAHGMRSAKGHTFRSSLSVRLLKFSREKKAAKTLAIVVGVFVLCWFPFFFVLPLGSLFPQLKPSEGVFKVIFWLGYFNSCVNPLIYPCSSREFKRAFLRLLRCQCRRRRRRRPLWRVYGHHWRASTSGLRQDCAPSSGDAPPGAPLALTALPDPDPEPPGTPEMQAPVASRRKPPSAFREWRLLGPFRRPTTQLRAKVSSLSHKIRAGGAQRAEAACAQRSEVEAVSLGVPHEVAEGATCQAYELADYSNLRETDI
The assay is described as follows: Radioligand binding, adrenergic α1D receptor ([3H]Prazosin). To be noted: 0.1 μM compound; HEK-293 cells; 0.6 nM [3H]Prazosin; read-out: Percentage inhibition of ligand binding, Adrenergic α1D. As to the method: Compounds were incubated with 0.6 nM [3H]Prazosin for 60 min at 25° C. Non-specific binding was estimated in the presence of 10 μM phentolamine. Receptor proteins were filtered and washed, the filters were then counted to determine [3H]Prazosin specifically bound. Compounds were screened at 1 μM or lower, using 1% DMSO as vehicle. Biochemical assay results are presented as the percent inhibition of specific binding in Table 2.

In general, inhibition refers to the change of the read-out against control, counted positive when it falls. In the case of `Cc1ccc2c(c1)c1c(n2-c2ccccc2-c2cc3ccccc3s2)CCN(C)C1` [Compound No. 103, 5-(2-(benzo[b]thiophen-2-yl)phenyl)-2,8-dimethyl-2,3,4,5-tetrahydro-1H-pyrido[4,3-b]indole], the inhibition at 0.1 µM in assay [1] stood at 41%; in assay [2], 98%; in assay [3], 97%; in assay [4], 62%.
For the compound `Cc1ccc2c(c1)c1c(n2-c2cccc(-c3cn[nH]c3)c2)CCN(C)C1` [Compound No. 70, 5-(3-(1H-pyrazol-4-yl)phenyl)-2,8-dimethyl-2,3,4,5-tetrahydro-1H-pyrido[4,3-b]indole], the inhibition at 0.1 µM was 18% in assay [1], 34% in assay [2], 19% in assay [3] and 9% in assay [4].
Take `CC(=O)Nc1ccc(-c2ccccc2-n2c3c(c4cc(C)ccc42)CN(C)CC3)cn1` [Compound No. 83, N-(5-(2-(2,8-dimethyl-3,4-dihydro-1H-pyrido[4,3-b]indol-5(2H)-yl)phenyl)pyridin-2-yl)acetamide]: the inhibition at 0.1 µM in assay [1] was found to be 18%; in assay [2], 20%; in assay [3], 71%; in assay [4], 64%.
With `Cc1cc(C)c2c(c1)c1c(n2-c2cccc3ncccc23)CCN(C)C1` [Compound 47], the inhibition at 0.1 µM in assay [1] stood at 5%; in assay [2] it was 62%; in assay [3], 6%; in assay [4] it was 3%.
`Cc1ccc2c(c1)c1c(n2-c2cscc2-c2c(C)noc2C)CCN(C)C1` [Compound No. 62]: the inhibition at 0.1 µM stood at 32% in assay [1], 67% in assay [2], 19% in assay [3] and 18% in assay [4].
As for `Cc1ccc2c(c1)c1c(n2-c2cccc(-c3ccc(C)s3)c2)CCN(C)C1` [Compound No. 64, 2,8-dimethyl-5-(3-(5-methylthiophen-2-yl)phenyl)-2,3,4,5-tetrahydro-1H-pyrido[4,3-b]indole], the inhibition at 0.1 µM is 10% in assay [1], 25% in assay [2], 1% in assay [3] and -1% in assay [4].
Consider `Cc1ccc2c(c1)c1c(n2-c2cccc(-c3ccc(S(C)(=O)=O)cc3)c2)CCN(C)C1` [Compound No. 131, 2,8-dimethyl-5-(4′-(methylsulfonyl)biphenyl-3-yl)-2,3,4,5-tetrahydro-1H-pyrido[4,3-b]indole], for which the inhibition at 0.1 µM in assay [1] stood at 0%; in assay [2], 75%; in assay [3], 28%; in assay [4], 3%.
For the compound `Cc1ccc2c(c1)c1c(n2-c2cscc2-c2ccc(O)nc2)CCN(C)C1` [Compound 49], the inhibition at 0.1 µM was 12% in assay [1], -3% in assay [2], 31% in assay [3] and 14% in assay [4].
`Cc1ccc2c(c1)c1c(n2-c2ccccc2-c2c(C)noc2C)CCN(C)C1` [Compound No. 82, 4-(2-(2,8-dimethyl-3,4-dihydro-1H-pyrido[4,3-b]indol-5(2H)-yl)phenyl)-3,5-dimethylisoxazole]: the inhibition at 0.1 µM in assay [1] came to 14%; in assay [2], 30%; in assay [3], 21%; in assay [4] it was 14%.
Consider `CNC(=O)c1ccc(-c2cscc2-n2c3c(c4cc(C)ccc42)CN(C)CC3)cn1` [Compound No. 73], for which the inhibition at 0.1 µM in assay [1] was 64%; in assay [2], 16%; in assay [3], 94%; in assay [4], 83%.
`Cc1ccc2c(c1)c1c(n2-c2cccc(-c3ccc(S(N)(=O)=O)cc3)c2)CCN(C)C1` [Compound No. 158, 3′-(2,8-dimethyl-3,4-dihydro-1H-pyrido[4,3-b]indol-5(2H)-yl)biphenyl-4-sulfonamide]: the inhibition at 0.1 µM amounted to 7% in assay [1], 73% in assay [2], 60% in assay [3] and 14% in assay [4].
